Laboratory results as given in US10722501B2 (BAYER AKTIENGESELLSCHAFT, priority 2016, dated 2020).

Molecular target: T1, recombinant full-length human prolyl endopeptidase (PREP) (Homo sapiens, UniProt P48147)
T1 construct: To recombinant full-length human prolyl endopeptidase (PREP, R&D-Systems, 4308-SE); purchased R&D-Systems 4308-SE
T1 sequence (P48147 1-710): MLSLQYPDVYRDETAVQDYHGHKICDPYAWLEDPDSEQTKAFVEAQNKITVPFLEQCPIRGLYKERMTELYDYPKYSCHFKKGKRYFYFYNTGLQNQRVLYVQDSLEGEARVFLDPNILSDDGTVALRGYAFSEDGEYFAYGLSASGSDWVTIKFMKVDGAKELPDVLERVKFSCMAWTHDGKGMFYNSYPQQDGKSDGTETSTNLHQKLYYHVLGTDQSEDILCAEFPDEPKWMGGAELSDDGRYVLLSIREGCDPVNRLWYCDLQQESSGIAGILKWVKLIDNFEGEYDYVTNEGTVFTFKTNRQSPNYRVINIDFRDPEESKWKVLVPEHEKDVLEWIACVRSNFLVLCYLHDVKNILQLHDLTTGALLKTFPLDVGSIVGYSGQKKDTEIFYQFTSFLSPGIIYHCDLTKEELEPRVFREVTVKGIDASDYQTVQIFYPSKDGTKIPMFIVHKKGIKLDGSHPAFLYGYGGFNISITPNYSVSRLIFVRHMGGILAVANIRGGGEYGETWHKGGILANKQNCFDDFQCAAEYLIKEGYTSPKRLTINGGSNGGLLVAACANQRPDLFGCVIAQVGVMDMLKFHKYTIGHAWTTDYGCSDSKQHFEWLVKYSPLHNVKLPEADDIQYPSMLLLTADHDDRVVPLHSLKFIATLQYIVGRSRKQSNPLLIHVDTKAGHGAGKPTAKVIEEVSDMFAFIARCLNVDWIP
Assay: Biochemical human prolyl endopeptidase (PREP) assay with fluorescently labelled substrate
Details: substrate Z-Gly-Pro-AMC 50 μM, 32° C., 60 min; some as mean values from multiple independent determinations
Procedure, shortened: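 0.4 nM (final, example) recombinant PREP in pH 7.5 Tris buffer with EDTA, GSH, BSA and Brij-35; compounds at 1 nM to 30 μM. Reaction started with 50 μM Z-Gly-Pro-AMC and followed by fluorescence (ex 360/em 465 nm) at 32° C for 60 min. IC50 interpolated from percent activity based on initial slopes.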

Row | IC50 [nM] | Compound
1 | 0.415 | Cc1ccc(Cn2nc3n(c2=O)C(C(=O)N2CCCC2)CCC3C)cc1 (racemic) [Example 223, (5RS,8RS)-8-Methyl-2-(4-methylbenzyl)-5-(pyrrolidin-1-ylcarbonyl)-5,6,7,8-tetrahydro[1,2,4]triazolo[4,3-a]pyridin-3(2H)-one]
2 | 0.56 | Cc1ccc(Cn2nc3n(c2=O)C(C(=O)N2CCCC2)CC(C)C3)cc1 (racemic) [Example 224, (5RS,7RS)-7-Methyl-2-(4-methylbenzyl)-5-(pyrrolidin-1-ylcarbonyl)-5,6,7,8-tetrahydro[1,2,4]triazolo[4,3-a]pyridin-3(2H)-one]
3 | 2.3 | O=C(C1CC(C(F)(F)F)Cc2nn(Cc3ccc(Cl)nc3)c(=O)n21)N1CCC(F)(F)C1 (racemic) [Example 230, (5RS,7RS)-2-[(6-Chloropyridin-3-yl)methyl]-5-[(3,3-difluoropyrrolidin-1-yl)carbonyl]-7-(trifluoromethyl)-5,6,7,8-tetrahydro[1,2,4]triazolo[4,3-a]pyridin-3(2H)-one]
4 | 203 | O=C(C1CC(C(F)(F)F)Cc2nn(Cc3ccc(C(F)(F)F)nc3)c(=O)n21)N1CC(O)C1 (racemic) [Example 233, (5RS,7RS)-5-[(3-Hydroxyazetidin-1-yl)carbonyl]-7-(trifluoromethyl)-2-{[6-(trifluoromethyl)pyridin-3-yl]methyl}-5,6,7,8-tetrahydro[1,2,4]triazolo[4,3-a]pyridin-3(2H)-one]
5 | 6.8 | O=C(C1CC(C(F)(F)F)Cc2nn(Cc3ccc(C(F)(F)F)nc3)c(=O)n21)N1CC[C@H](F)C1 (mixture of isomers) [Example 235, (5RS,7RS)-5-{[(3S)-3-Fluoropyrrolidin-1-yl]carbonyl}-7-(trifluoromethyl)-2-{[6-(trifluoromethyl)pyridin-3-yl]methyl}-5,6,7,8-tetrahydro[1,2,4]triazolo[4,3-a]pyridin-3(2H)-one]
6 | 1.4 | O=C(C1CC(C(F)(F)F)Cc2nn(Cc3ccc(C(F)(F)F)nc3)c(=O)n21)N1CC[C@H](F)C1 (mixture of isomers) [Example 236, (5RS,7RS)-5-{[(3S)-3-Fluoropyrrolidin-1-yl]carbonyl}-7-(trifluoromethyl)-2-{[6-(trifluoromethyl)pyridin-3-yl]methyl}-5,6,7,8-tetrahydro[1,2,4]triazolo[4,3-a]pyridin-3(2H)-one]
7 | 5.8 | O=C(C1CC(C(F)(F)F)Cc2nn(Cc3ccc(Cl)nc3)c(=O)n21)N1CC[C@H](F)C1 (mixture of isomers) [Example 241, (5RS,7RS)-2-[(6-Chloropyridin-3-yl)methyl]-5-{[(3S)-3-fluoropyrrolidin-1-yl]carbonyl}-7-(trifluoromethyl)-5,6,7,8-tetrahydro[1,2,4]triazolo[4,3-a]pyridin-3(2H)-one]
8 | 2 | O=C(C1CC(C(F)(F)F)Cc2nn(Cc3ccc(Cl)nc3)c(=O)n21)N1CC[C@H](F)C1 (mixture of isomers) [Example 242, (5RS,7RS)-2-[(6-Chloropyridin-3-yl)methyl]-5-{[(3S)-3-fluoropyrrolidin-1-yl]carbonyl}-7-(trifluoromethyl)-5,6,7,8-tetrahydro[1,2,4]triazolo[4,3-a]pyridin-3(2H)-one]
9 | 6.9 | O=C(C1CC(C(F)(F)F)Cc2nn(Cc3ccc(Cl)nc3)c(=O)n21)N1CC[C@@H](F)C1 (mixture of isomers) [Example 245, (5RS,7RS)-2-[(6-Chloropyridin-3-yl)methyl]-5-{[(3R)-3-fluoropyrrolidin-1-yl]carbonyl}-7-(trifluoromethyl)-5,6,7,8-tetrahydro[1,2,4]triazolo[4,3-a]pyridin-3(2H)-one]
10 | 3.4 | O=C(C1CC(C(F)(F)F)Cc2nn(Cc3ccnc(C(F)(F)F)c3F)c(=O)n21)N1CCC(F)(F)C1 (racemic) [Example 251, (5RS,7RS)-5-[(3,3-Difluoropyrrolidin-1-yl)carbonyl]-2-{[3-fluoro-2-(trifluoromethyl)pyridin-4-yl]methyl}-7-(trifluoromethyl)-5,6,7,8-tetrahydro[1,2,4]triazolo[4,3-a]pyridin-3(2H)-one]
11 | 1.7 | O=C(C1CC(C(F)(F)F)Cc2nn(Cc3ccnc(C(F)(F)F)c3F)c(=O)n21)N1CC[C@H](F)C1 (mixture of isomers) [Example 256, (5RS,7RS)-5-{[(3S)-3-Fluoropyrrolidin-1-yl]carbonyl}-2-{[3-fluoro-2-(trifluoromethyl)pyridin-4-yl]methyl}-7-(trifluoromethyl)-5,6,7,8-tetrahydro[1,2,4]triazolo[4,3-a]pyridin-3(2H)-one]
12 | 2.8 | O=C(C1CC(C(F)(F)F)Cc2nn(Cc3ncc(Cl)cc3F)c(=O)n21)N1CC[C@H](F)C1 (mixture of isomers) [Example 263, (5RS,7RS)-2-[(5-Chloro-3-fluoropyridin-3-yl)methyl]-5-{[(3S)-3-fluoropyrrolidin-1-yl]carbonyl}-7-(trifluoromethyl)-5,6,7,8-tetrahydro[1,2,4]triazolo[4,3-a]pyridin-3(2H)-one]
13 | 2.55 | O=C(C1CC(C(F)(F)F)Cc2nn(Cc3ncc(Cl)cc3F)c(=O)n21)N1CC[C@H](F)C1 (mixture of isomers) [Example 264, (5RS,7RS)-2-[(5-Chloro-3-fluoropyridin-3-yl)methyl]-5-{[(3S)-3-fluoropyrrolidin-1-yl]carbonyl}-7-(trifluoromethyl)-5,6,7,8-tetrahydro[1,2,4]triazolo[4,3-a]pyridin-3(2H)-one]
14 | 5.1 | O=C(C1CC(C(F)(F)F)Cc2nn(Cc3ncc(Cl)cc3F)c(=O)n21)N1C[C@@H](F)[C@@H](F)C1 (mixture of isomers) [Example 266, (5RS,7RS)-2-[(5-Chloro-3-fluoropyridin-3-yl)methyl]-5-{[(3R,4S)-3,4-difluoropyrrolidin-1-yl]carbonyl}-7-(trifluoromethyl)-5,6,7,8-tetrahydro[1,2,4]triazolo[4,3-a]pyridin-3(2H)-one]
15 | 2 | O=C(C1CCC(C(F)(F)F)c2nn(Cc3ccc(C(F)(F)F)nc3)c(=O)n21)N1C[C@@H](F)[C@@H](F)C1 (mixture of isomers) [Example 270, (5RS,8RS)-5-{[(3R,4S)-3,4-Difluoropyrrolidin-1-yl]carbonyl}-8-(trifluoromethyl)-2-{[6-(trifluoromethyl)pyridin-3-yl]methyl}-5,6,7,8-tetrahydro[1,2,4]triazolo[4,3-a]pyridin-3(2H)-one]
16 | 1.1 | O=C(C1CCC(C(F)(F)F)c2nn(Cc3ccc(C(F)(F)F)nc3)c(=O)n21)N1CC[C@H](F)C1 (mixture of isomers) [Example 271, (5RS,8RS)-5-{[(3S)-3-Fluoropyrrolidin-1-yl]carbonyl}-8-(trifluoromethyl)-2-{[6-(trifluoromethyl)pyridin-3-yl]methyl}-5,6,7,8-tetrahydro[1,2,4]triazolo[4,3-a]pyridin-3(2H)-one]
17 | 7.6 | O=C(C1CCC(C(F)(F)F)c2nn(Cc3ncccc3F)c(=O)n21)N1CC[C@H](F)C1 (mixture of isomers) [Example 273, (5RS,8RS)-2-[(3-Fluoropyridin-2-yl)methyl]-5-{[(3S)-3-fluoropyrrolidin-1-yl]carbonyl}-8-(trifluoromethyl)-5,6,7,8-tetrahydro[1,2,4]triazolo[4,3-a]pyridin-3(2H)-one]
18 | 5.9 | O=C(C1CCC(C(F)(F)F)c2nn(Cc3ncccc3F)c(=O)n21)N1C[C@@H](F)[C@@H](F)C1 (mixture of isomers) [Example 274, (5RS,8RS)-5-{[(3R,4S)-3,4-Difluoropyrrolidin-1-yl]carbonyl}-2-[(3-fluoropyridin-2-yl)methyl]-8-(trifluoromethyl)-5,6,7,8-tetrahydro[1,2,4]triazolo[4,3-a]pyridin-3(2H)-one]
19 | 3.8 | O=C(C1C(C(F)(F)F)CCc2nn(Cc3ccnc(C(F)(F)F)c3F)c(=O)n21)N1CC[C@H](F)C1 (mixture of isomers) [Example 280, (5RS,6RS)-5-{[(3S)-3-Fluoropyrrolidin-1-yl]carbonyl}-2-{[3-fluoro-2-(trifluoromethyl)pyridin-4-yl]methyl}-6-(trifluoromethyl)-5,6,7,8-tetrahydro[1,2,4]triazolo[4,3-a]pyridin-3(2H)-one]
20 | 15 | O=C(C1C(C(F)(F)F)CCc2nn(Cc3ncc(Cl)cc3Cl)c(=O)n21)N1CC[C@H](F)C1 (mixture of isomers) [Example 282, (5RS,6RS)-2-[(3,5-Dichloropyridin-2-yl)methyl]-5-{[(3S)-3-fluoropyrrolidin-1-yl]carbonyl}-6-(trifluoromethyl)-5,6,7,8-tetrahydro[1,2,4]triazolo[4,3-a]pyridin-3(2H)-one]
21 | 3 | O=C(C1C(C(F)(F)F)CCc2nn(Cc3ccc(C(F)(F)F)nc3)c(=O)n21)N1CC[C@H](F)C1 (mixture of isomers) [Example 284, (5RS,6RS)-5-{[(3S)-3-Fluoropyrrolidin-1-yl]carbonyl}-6-(trifluoromethyl)-2-{[6-(trifluoromethyl)pyridin-3-yl]methyl}-5,6,7,8-tetrahydro[1,2,4]triazolo[4,3-a]pyridin-3(2H)-one]
